Data published in paper PMC7073924, “2-Aminomethylene-5-sulfonylthiazole Inhibitors of Lysyl Oxidase (LOX) and LOXL2 Show Significant Efficacy in Delaying Tumor Growth” (Journal of Medicinal Chemistry, 2019).
“And” between values parts separate entries of the source, which are not always exact repeats. Equal values may be shown once. Where a name gives a salt, the structure may show the parent alone.

Assays:
MAO-A = biological target: T1, MAO-A (Homo sapiens, UniProt P21397); format: biochemical; conditions: Table 7
T1 construct: purchased Sigma
T1 sequence (P21397 1-527): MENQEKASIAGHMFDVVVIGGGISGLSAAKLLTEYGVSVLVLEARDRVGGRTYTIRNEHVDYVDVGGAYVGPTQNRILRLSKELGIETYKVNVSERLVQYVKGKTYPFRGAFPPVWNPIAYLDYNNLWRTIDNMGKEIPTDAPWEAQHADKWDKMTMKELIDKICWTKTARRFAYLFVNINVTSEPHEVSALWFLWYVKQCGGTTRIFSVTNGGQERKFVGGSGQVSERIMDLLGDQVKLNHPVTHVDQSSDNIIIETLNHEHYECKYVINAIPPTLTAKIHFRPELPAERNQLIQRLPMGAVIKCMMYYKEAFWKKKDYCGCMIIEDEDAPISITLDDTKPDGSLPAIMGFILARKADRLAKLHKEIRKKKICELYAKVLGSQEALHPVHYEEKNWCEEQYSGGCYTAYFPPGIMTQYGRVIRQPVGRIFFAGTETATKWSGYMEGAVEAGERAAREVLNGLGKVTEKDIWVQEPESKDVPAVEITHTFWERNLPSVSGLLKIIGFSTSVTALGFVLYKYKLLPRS
Description: (§1) All amine oxidase assays were performed with concentrations as above. MAO-A and MAO-B enzymes were purchased from Sigma. The catalytic activity of MAO-A and MAO-B was determined using the Promega MAO-Glo assay kit (substrate included), with clorgyline and deprenyl as reference inhibitor controls, respectively. DAO was purchased from Sigma, and the catalytic activity was determined using the Promega ROS-Glo assay kit, with aminoguanidine as the reference inhibitor control. SSAO was purchased from Sigma. SSAO catalytic activity was determined using the Promega MAO-Glo assay kit, with mofegiline as the reference inhibitor control.

MAO-B = biological target: T2, MAO-B (Homo sapiens, UniProt P27338); format: biochemical; conditions: Table 7
T2 construct: purchased Sigma
T2 sequence (P27338 1-520): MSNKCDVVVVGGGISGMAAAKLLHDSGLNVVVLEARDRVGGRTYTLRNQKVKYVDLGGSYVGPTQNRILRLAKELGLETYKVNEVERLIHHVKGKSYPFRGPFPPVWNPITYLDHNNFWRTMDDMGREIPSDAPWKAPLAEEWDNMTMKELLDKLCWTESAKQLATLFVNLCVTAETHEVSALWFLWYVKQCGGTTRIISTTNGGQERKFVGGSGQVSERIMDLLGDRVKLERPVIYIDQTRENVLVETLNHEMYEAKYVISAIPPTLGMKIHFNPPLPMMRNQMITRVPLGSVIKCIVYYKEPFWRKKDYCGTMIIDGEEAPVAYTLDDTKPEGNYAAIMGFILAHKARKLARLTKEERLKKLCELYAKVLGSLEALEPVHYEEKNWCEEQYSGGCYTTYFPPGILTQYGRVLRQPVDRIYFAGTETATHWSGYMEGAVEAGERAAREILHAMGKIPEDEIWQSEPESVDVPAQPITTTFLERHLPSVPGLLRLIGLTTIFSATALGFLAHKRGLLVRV
Description: as §1

DAO = biological target: T3, DAO (Sus scrofa, UniProt Q9TRC7); format: biochemical; conditions: Table 7
T3 construct: purchased Sigma
T3 sequence (Q9TRC7 25-755): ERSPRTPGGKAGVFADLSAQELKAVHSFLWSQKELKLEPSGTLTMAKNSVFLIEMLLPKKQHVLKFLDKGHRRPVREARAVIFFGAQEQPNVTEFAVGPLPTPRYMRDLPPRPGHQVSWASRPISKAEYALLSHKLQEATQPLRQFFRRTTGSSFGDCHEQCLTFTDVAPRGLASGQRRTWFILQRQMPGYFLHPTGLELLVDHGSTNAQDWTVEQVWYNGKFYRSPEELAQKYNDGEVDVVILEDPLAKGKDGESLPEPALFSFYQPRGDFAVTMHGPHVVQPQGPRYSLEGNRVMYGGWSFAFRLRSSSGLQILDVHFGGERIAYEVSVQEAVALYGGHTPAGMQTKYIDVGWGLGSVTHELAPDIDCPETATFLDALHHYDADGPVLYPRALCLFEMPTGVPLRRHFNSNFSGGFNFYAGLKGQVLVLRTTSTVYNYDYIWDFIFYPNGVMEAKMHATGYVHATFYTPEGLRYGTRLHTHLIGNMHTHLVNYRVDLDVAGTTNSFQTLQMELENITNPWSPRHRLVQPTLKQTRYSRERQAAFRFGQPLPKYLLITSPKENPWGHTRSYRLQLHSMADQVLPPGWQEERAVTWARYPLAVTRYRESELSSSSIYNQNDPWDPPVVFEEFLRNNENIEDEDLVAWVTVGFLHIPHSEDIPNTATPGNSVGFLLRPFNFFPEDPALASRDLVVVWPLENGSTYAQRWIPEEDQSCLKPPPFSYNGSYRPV
Description: as §1

SSAO = biological target: T4, SSAO (Homo sapiens, UniProt Q16853); format: biochemical; conditions: Table 7
T4 construct: purchased Sigma
T4 sequence (Q16853 1-763): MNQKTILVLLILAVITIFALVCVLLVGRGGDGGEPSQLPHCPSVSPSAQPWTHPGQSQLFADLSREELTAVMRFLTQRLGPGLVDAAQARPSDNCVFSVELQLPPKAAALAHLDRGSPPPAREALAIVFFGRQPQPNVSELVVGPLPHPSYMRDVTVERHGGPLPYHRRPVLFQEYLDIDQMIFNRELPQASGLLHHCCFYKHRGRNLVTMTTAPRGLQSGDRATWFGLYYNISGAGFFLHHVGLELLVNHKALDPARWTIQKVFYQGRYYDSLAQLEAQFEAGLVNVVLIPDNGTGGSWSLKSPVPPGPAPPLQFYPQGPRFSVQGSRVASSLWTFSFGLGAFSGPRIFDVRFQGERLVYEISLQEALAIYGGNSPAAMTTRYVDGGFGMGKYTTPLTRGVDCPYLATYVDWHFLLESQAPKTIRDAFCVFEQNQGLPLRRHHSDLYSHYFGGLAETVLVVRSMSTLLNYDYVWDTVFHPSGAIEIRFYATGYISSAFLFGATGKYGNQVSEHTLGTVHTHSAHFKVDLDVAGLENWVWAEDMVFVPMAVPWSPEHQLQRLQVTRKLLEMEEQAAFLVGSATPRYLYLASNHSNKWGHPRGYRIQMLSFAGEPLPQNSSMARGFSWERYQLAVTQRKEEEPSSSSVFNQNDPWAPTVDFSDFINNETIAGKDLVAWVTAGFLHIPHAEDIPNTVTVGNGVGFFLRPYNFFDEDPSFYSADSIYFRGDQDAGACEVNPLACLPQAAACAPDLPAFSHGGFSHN
Description: as §1

MLM stability assay = format: in vitro ADME; conditions: mouse liver microsomes; percentage of compound remaining after 30 min; 10 μM
Description: Mouse liver microsomes (CD1 female; M1500) and rat liver microsomes (Sprague Dawley female; R1500) were purchased from Tebu-bio, and the assay was performed by methods previously described.[21] Inhibitors at 10 μM concentration incubated with the microsomes were assessed at 0, 15, and 30 min. Control samples containing no microsomes and no cofactors were also assessed at 0 and 30 min. Samples were extracted by protein precipitation, and centrifugation for 20 min in a refrigerated centrifuge (4 °C) at 3700 rpm. The supernatant was analyzed by LC–MS/MS for % metabolized over time.

In vivo PK, mouse = conditions: single po dose 50 mg/kg
Excerpt: Female Balb/C or CD1 nude mice (Charles River Laboratories) at 6 weeks of age were used for the mouse PK analyses. […] Three mice were used per time-point per route; average values are reported. They were placed under halothane or isoflurane anesthesia, and blood for plasma preparation was taken by terminal cardiac puncture into heparinized syringes.

[1] = biological target: hERG human potassium ion channel (Homo sapiens, UniProt Q12809)
Chain of hERG human potassium ion channel (Q12809 whole entry): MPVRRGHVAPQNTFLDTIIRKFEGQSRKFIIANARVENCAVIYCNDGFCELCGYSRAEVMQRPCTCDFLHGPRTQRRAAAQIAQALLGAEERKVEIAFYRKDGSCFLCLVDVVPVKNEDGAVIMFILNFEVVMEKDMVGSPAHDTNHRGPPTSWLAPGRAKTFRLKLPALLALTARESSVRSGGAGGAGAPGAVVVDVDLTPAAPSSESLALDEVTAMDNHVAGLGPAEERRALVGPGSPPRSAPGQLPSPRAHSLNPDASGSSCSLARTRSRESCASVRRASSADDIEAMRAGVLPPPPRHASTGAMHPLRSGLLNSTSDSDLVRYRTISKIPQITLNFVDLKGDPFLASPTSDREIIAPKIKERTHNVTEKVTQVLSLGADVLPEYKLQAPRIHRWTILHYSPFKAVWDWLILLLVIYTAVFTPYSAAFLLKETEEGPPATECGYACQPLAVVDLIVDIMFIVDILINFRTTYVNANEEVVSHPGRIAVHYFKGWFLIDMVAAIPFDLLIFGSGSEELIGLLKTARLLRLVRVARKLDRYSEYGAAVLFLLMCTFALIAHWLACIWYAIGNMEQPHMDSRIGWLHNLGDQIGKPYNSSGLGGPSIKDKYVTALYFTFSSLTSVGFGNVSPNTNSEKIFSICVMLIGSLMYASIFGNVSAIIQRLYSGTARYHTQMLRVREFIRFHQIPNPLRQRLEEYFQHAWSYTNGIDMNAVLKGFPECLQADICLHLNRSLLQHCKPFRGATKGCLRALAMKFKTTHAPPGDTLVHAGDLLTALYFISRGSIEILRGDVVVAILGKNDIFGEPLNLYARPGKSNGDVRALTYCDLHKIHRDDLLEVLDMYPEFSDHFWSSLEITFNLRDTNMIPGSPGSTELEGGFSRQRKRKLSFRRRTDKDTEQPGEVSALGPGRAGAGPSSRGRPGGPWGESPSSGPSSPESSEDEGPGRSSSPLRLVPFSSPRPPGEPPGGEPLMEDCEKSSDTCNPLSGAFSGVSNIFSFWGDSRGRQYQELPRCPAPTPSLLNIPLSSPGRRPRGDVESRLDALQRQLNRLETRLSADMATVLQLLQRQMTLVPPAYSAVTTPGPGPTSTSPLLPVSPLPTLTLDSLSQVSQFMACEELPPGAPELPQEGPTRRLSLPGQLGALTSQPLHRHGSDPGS
Description: hERG inhibition was determined using the “hERG human potassium ion channel cell based antagonist Qpatch assay” by Eurofins Ltd. Cell permeability was determined using the “Caco-2 permeability assay” by Cyprotex Ltd.

In the case of Cn1cc(-c2cc(F)cc(S(=O)(=O)c3cnc(CN)s3)c2)cn1 [Compound 21e, (5-((3-Fluoro-5-(1-methyl-1H-pyrazol-4-yl)phenyl)sulfonyl)thiazol-2-yl)methanamine Hydrochloride], the IC50 (MAO-A) is reported as 61.7 µM and 66.8 µM, the IC50 (MAO-B) is reported as over 100 µM and the IC50 (DAO) is reported as 21.3 µM and 22.5 µM. For the same molecule, the IC50 (SSAO) was 36.3 µM and 40.3 µM, the “MLM stability (%)” value (MLM stability assay) was 90% and the “AUC(PO)” value (In vivo PK, mouse; mouse plasma) was 4.48 µM·h. The Cmax (In vivo PK, mouse; mouse plasma) was 9.75 µM, the “t1/2(PO)” value (In vivo PK, mouse; mouse) was 2.0 h and the IC50 [1] was 66 µM.
